We go through 79 compounds from the METLIN SMRT retention time set (Domingo-Almenara et al. 2019).

Each structure is given as a SMILES string.

This series is described as follows: gradient 5% acetonitrile 3 min, to 50% in 2 min, to 85% in 15 min, held 3 min, 100 µL/min. The following applies: column: Zorbax Extend-C18 2.1 x 50 mm; eluents: water / acetonitrile, 0.1% formic acid. The gist of the method: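 The system's dead and dwell volumes were 40 μL and 900 μL, with a Zorbax Extend-C18 column (2.1 × 50 mm, 1.8 μm) run at 100 μL/min in water and acetonitrile containing 0.1% formic acid each. Pure standards were analyzed in mixtures of ~100 molecules by HPLC–quadrupole time-of-flight mass spectrometry in positive and negative ionization mode. Retention time was assigned from computationally picked, manually inspected adduct peaks.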
`CC(=O)OC1CCN(C(=O)c2ccc(C#N)cc2)CC1`: the RP-LC retention time was determined as 698 s.

On to `CS(=O)(=O)N1CCC(C(=O)Nc2ccc(C(F)(F)F)cc2)Oc2ccccc21` (centres undefined), for which the RP-LC retention time came to 1030 s.

Consider `Cc1ccc(-n2cc3c(c(C(=O)NC4CC4)c2=O)CC(C)(C)CC3=O)cc1`, for which the RP-LC retention time is 867 s.

`O=C(Cn1c(=O)c2cc(-c3cccs3)nn2c2ncccc21)NCc1ccc(F)cc1`: the RP-LC retention time is 821 s.

`COc1ccc(S(=O)(=O)N2C[C@@H]3C[C@H](NC(=O)c4cccs4)[C@H]2C3)cc1Cl` showed an RP-LC retention time of 792 s.

On to `COc1cccc(CNC(=O)C2(C)CCCN(C(=O)Nc3cccc(Cl)c3C)C2)c1` (centres undefined), for which the RP-LC retention time is 982 s.

`COc1ccc2c(c1)CC(NC(=O)Nc1ccc(Br)cc1)CO2` (centres undefined) displayed an RP-LC retention time of 888 s.

For the compound `O=C(c1ccsc1)N1CCC(N(C(=O)C2CC2)C2CCOCC2)CC1`, the RP-LC retention time stood at 662 s.

`Cc1ccc(-c2ncc(C#N)c(=O)n2CC(=O)NCc2ccccc2Br)cc1`: the RP-LC retention time stood at 1010 s.

The compound `Cc1cc(N2CCCCC2)n2nc(CN3CCN(C(C)C)CC3)nc2n1` gave an RP-LC retention time of 574 s.

Compound `Cc1cc(C)cc(NC(=O)CN2C(=O)C(C)(C)c3ccccc32)c1` had an RP-LC retention time of 968 s.

As to `COc1ccc(CCc2nc3nccc(-c4ccc(OC)c(OC)c4)n3n2)cc1OC`, the RP-LC retention time was 781 s.

`CN(C)c1ccc(C(=O)Nc2cc(-c3ccsc3)no2)cc1`: the RP-LC retention time was 961 s.

Turning to `CCS(=O)(=O)N1CC(=O)N(c2cc(Cl)ccc2C)C(C)(C(=O)NC2CCCCC2)C1` (centres undefined), the RP-LC retention time worked out at 955 s.

For `COc1ncc(C(=O)NC(C)CCc2ccccc2)cn1` (centres undefined), the RP-LC retention time is 797 s.

For `Cc1ccc(CN2CCN(CC(=O)NCc3cccnc3)C(=O)C2=O)cc1`, the RP-LC retention time came out at 859 s.

Regarding `COC(=O)c1c(C)[nH]c(C(=O)N2CCC(CC(=O)N3CCN(c4cccc(C)c4)C(C)C3)CC2)c1C` (centres undefined), the RP-LC retention time was determined as 754 s.

`Cc1ccn2cc(C(=O)NC3CCCCCC3)nc2c1` returned an RP-LC retention time of 683 s.

In turn, `CCOc1ccc(C2c3[nH]c4ccccc4c3CCN2C(=O)COC)cc1` (centres undefined) returned an RP-LC retention time of 981 s.

In turn, `Cc1cccc2c(=O)n(C3CCN(S(=O)(=O)c4ccc(Cl)cc4)CC3)cnc12` came in with an RP-LC retention time of 1030 s.

The compound `COc1cc(NC(=O)CCl)ccc(=O)c1` showed an RP-LC retention time of 631 s.

Compound `Cc1ccc(C(=O)N2C[C@@H]3C[C@H](NC(=O)c4cccnc4)[C@H]2C3)cc1F` registered an RP-LC retention time of 609 s.

`CCN1CCN(c2cc(C)c3cc(NC(=O)c4ccco4)ccc3n2)CC1` showed an RP-LC retention time of 560 s.

On to `Cc1cc(C)n2nc(SCC(=O)Nc3ccc(Br)cc3F)nc2n1`, for which the RP-LC retention time was found to be 850 s.

Consider `CC12NC(Cc3ccccc31)c1ccccc12` (centres undefined), for which the RP-LC retention time was determined as 670 s.

Take `Cc1ccc(NC(=O)N(C)CCc2noc(COc3ccccc3)n2)cc1C`: the RP-LC retention time was determined as 947 s.

In the case of `CCOc1ccc(NC(=O)N2CCC3(CC2)NC(=O)c2ccc(Cl)cc2N3C)cc1`, the RP-LC retention time worked out at 904 s.

With `Cc1nc(C(=O)N2CCN(Cc3ccc(C)c(C)c3)CC2)c(C)o1`, the RP-LC retention time came to 619 s.

Turning to `CC(C)OCCCNC(=O)CCc1nnc2c3cc(-c4ccc(F)cc4)nn3ccn12`, the RP-LC retention time worked out at 710 s.

As for `COc1ccc(-c2csc(NC(=O)CS(=O)(=O)c3ccc(C)cc3)n2)cc1OC`, the RP-LC retention time worked out at 893 s.

`COc1cc2ncnc(Nc3ccc(F)c(Cl)c3)c2cc1NC(=O)/C=C/CN1CCCCC1` registered an RP-LC retention time of 704 s.

Compound `Cc1ccc(N2CC(C(=O)Nc3cc(-c4ccco4)no3)CC2=O)cc1` (centres undefined) showed an RP-LC retention time of 821 s.

On to `O=C(CSCc1ccccc1)NCC1CCN(C(=O)Oc2ccccc2)CC1`, for which the RP-LC retention time was found to be 853 s.

Take `COc1ccccc1-n1ccn(Cc2nc(-c3cccc(F)c3)no2)c(=O)c1=O`: the RP-LC retention time worked out at 861 s.

The compound `CCCn1ccc2oc(C)c(C(=O)NCc3c(C)cc(C)cc3C)c2c1=O` came in with an RP-LC retention time of 1200 s.

For the compound `Cc1cc(NC(=O)C(=O)c2c[nH]c3ccccc23)ccc1Br`, the RP-LC retention time was 1120 s.

`CCCS(=O)(=O)N1CCc2[nH]nc(-c3ccccc3)c2C1` showed an RP-LC retention time of 752 s.

In turn, `COc1ccccc1OCC1c2ccsc2CCN1C(=O)CN(C(=O)NC(C)C)C(C)(C)C` (centres undefined) returned an RP-LC retention time of 595 s.

In turn, `COC(=O)C1=CN(c2ccc(OC)cc2OC)c2cc(F)ccc2S1(=O)=O` had an RP-LC retention time of 875 s.

`CSc1ccc(-c2nc3ccccn3c2Nc2ccc3c(c2)OCCO3)cc1` came in with an RP-LC retention time of 712 s.

The compound `CC(Oc1ccccc1F)C(=O)NCCOc1ccc(-c2ccccn2)nn1` (centres undefined) displayed an RP-LC retention time of 612 s.

Regarding `COc1ccc(CCNC(=O)CN2C(=O)CCc3cc(Br)ccc32)cc1OC`, the RP-LC retention time worked out at 800 s.

On to `COc1ccc(N2CC(C(=O)NCCc3c[nH]c4ccccc34)CC2=O)cc1` (centres undefined), for which the RP-LC retention time was 725 s.

Turning to `CCS(=O)(=O)N1CCC2(CC1)C(OC)CN2c1cccc(F)c1` (centres undefined), the RP-LC retention time worked out at 965 s.

As for `COc1ccc(NC(=O)Cn2c(=O)n(-c3ccc(C)cc3)c(=O)c3c2cc(C)n3C)cc1Cl`, the RP-LC retention time turned out to be 891 s.

Consider `CCOC(=O)c1c(N2CCOCC2)nc2ccc([N+](=O)[O-])cc2c1-c1ccccc1`, for which the RP-LC retention time turned out to be 1110 s.

Turning to `O=C1CCCCC(Cc2ccccc2)(C(=O)NCc2ccc(Cl)cc2)N1` (centres undefined), the RP-LC retention time is 866 s.

On to `CN(C)CCCc1cc(C(=O)Nc2ccc(-c3ccncc3)cc2)ccc1O`, for which the RP-LC retention time was found to be 580 s.

The compound `COCc1c(C(=O)O)nnn1-c1cccc(Br)c1` showed an RP-LC retention time of 729 s.

Turning to `CC1CCCN(CCCNC(=O)c2cc(=O)n3c(nc4ccccc43)s2)C1` (centres undefined), the RP-LC retention time is 638 s.

Compound `O=C(c1ccccc1C(F)(F)F)N1CCC2(C1)C(=O)Nc1ccccc12` (centres undefined) gave an RP-LC retention time of 743 s.

`Cn1nc(-c2nnc(-c3ccc(F)cc3)o2)c2c1CCN(S(=O)(=O)Cc1ccccc1Cl)C2`: the RP-LC retention time was determined as 970 s.

Turning to `Cc1ccc(S(=O)(=O)NCC(c2ccccc2)N(C)C)cc1` (centres undefined), the RP-LC retention time came out at 642 s.

On to `CCOc1cccc(CNC(=O)CCc2nnc3c4cc(-c5ccccc5)nn4ccn23)c1`, for which the RP-LC retention time was found to be 766 s.

`CCCNS(=O)(=O)c1cc(-c2c(CC)noc2NC(C)=O)ccc1C` yielded an RP-LC retention time of 747 s.

`CCOc1ccc(NC(=O)C2CCCN2S(=O)(=O)c2ccc(OCC)cc2)cc1` (centres undefined): the RP-LC retention time turned out to be 967 s.

As to `COc1cc(-c2nnc(-c3ccc(C)c(S(=O)(=O)N(C)C)c3)o2)cc(OC)c1OC`, the RP-LC retention time was found to be 936 s.

The compound `O=C1CCSc2c1cccc2C(=O)N1CCN(c2ccc(F)cc2)CC1` displayed an RP-LC retention time of 882 s.

`CN1Cc2ccccc2-n2ccnc2C12CCN(C(=O)c1cc(F)cc(F)c1)CC2` registered an RP-LC retention time of 618 s.

`Cc1cc(N2CCN(C(=O)Nc3cccc(F)c3)CC2)nc(N2CCCC2)n1` yielded an RP-LC retention time of 680 s.

On to `CCn1cc(C)c(C(=O)O)c1CC(=O)NCCN1CCN(C)CC1`, for which the RP-LC retention time worked out at 561 s.

In the case of `Cc1cc(C)c(C(=O)N2CCC(CC(=O)NCc3ccccc3C)CC2)[nH]1`, the RP-LC retention time was 794 s.

Compound `COc1ccc(C2Cn3nnc(-c4nc(-c5ccccc5Br)no4)c3CO2)cc1` (centres undefined) had an RP-LC retention time of 1150 s.

Regarding `COc1ccc(-c2noc(CSc3nccn3-c3ccc(C)cc3)n2)cc1OC`, the RP-LC retention time worked out at 856 s.

Turning to `O=S(=O)(c1ccc(Cl)cc1)N1CCC(c2nc(-c3cccnc3)no2)CC1`, the RP-LC retention time was 961 s.

Compound `O=C(CC1CCCC1)NCCC1CCN(C(=O)Nc2cc(F)ccc2F)CC1` showed an RP-LC retention time of 847 s.

In turn, `COc1ccc(-c2noc(CCCC(=O)Nc3nc(-c4ccc(Cl)cc4)c(C)s3)n2)cc1` had an RP-LC retention time of 1190 s.

`O=S(=O)(c1ccc(Cl)cc1)N1CCc2nc(-c3ccc(F)cc3)ncc2C1` registered an RP-LC retention time of 1150 s.

For the compound `O=C(NCCc1cccs1)C1CCCN(c2nc3ccsc3c(=O)n2Cc2ccc(F)cc2)C1` (centres undefined), the RP-LC retention time is 936 s.

`COc1cc(OC)c(NC(=O)Cn2c(=O)n(-c3ccc(C)cc3)c(=O)c3c2cc(C)n3C)cc1Cl` showed an RP-LC retention time of 904 s.

`Cc1ccc(SCC(=O)N2CCN(c3ccccc3)CC2)cc1` came in with an RP-LC retention time of 942 s.

Compound `CCOC(=O)c1ccc(NC(=O)CC2Sc3ncnn3C2=O)cc1` (centres undefined) yielded an RP-LC retention time of 642 s.

`CSc1ccccc1NC(=O)c1ccc(-n2cccn2)nn1` showed an RP-LC retention time of 609 s.

In turn, `COc1ccc(-c2nnc(COc3ccc(NC(=O)c4ccccn4)cc3)o2)cc1` registered an RP-LC retention time of 930 s.

With `C[C@H]1CN(C(=O)CSc2ccccc2)C[C@@H]1c1nc(-c2cccnc2)no1`, the RP-LC retention time was 823 s.

Regarding `O=C1C(NS(=O)(=O)Cc2cc(F)cc(F)c2)CCN1c1ccccc1` (centres undefined), the RP-LC retention time was 914 s.

The compound `O=C(c1ccco1)N1CCN(c2ccc3cc(S(=O)(=O)N4CCOCC4)ccc3n2)CC1` yielded an RP-LC retention time of 661 s.

Turning to `Cc1cc2c(C)c(C(=O)N3CCCCC3)oc2c(S(=O)(=O)N2CCN(c3ncccn3)CC2)c1C`, the RP-LC retention time turned out to be 1100 s.

`Cc1cc(N2CCN(C(=O)c3ccc(Br)o3)CC2)nc(N2CCCCC2)n1` returned an RP-LC retention time of 690 s.
